Bounds are passed on as bounds.

2 molecules from patent US20210113640A1, “COMPOSITION FOR PROMOTING HAIR GROWTH OR PREVENTING HAIR LOSS CONTAINING EXTRACT OF ASTER AGERATOIDES” (KOREA INSTITUTE OF SCIENCE AND TECHNOLOGY, priority 2019, published 2021) can be followed below.

Experiment [1] relates to hair growth in C57BL/6 mice skin tissue. As to the kind of experiment: Induction of hair growth phase in depilated C57BL/6 mice (topical, 30 days). Type of experiment: in vivo. Particulars: applied once a day for 30 days. The procedure:
6-week-old C57BL/6 female mice with white or pink back skin were used as experimental animals and the experiment was conducted according to guidelines for the management and use of laboratory animals approved by the Animal Research Ethics Committee of the Korea Institute of Science and Technology (approval number: […]-2018-081). […] The back hairs of the mice were depilated using an electric shaver and a test substance was applied to the depilated area once a day for 30 days. […] 30 days after treatment with the sample, the hairs were randomly collected, the thickness and length of the hairs were measured, and the results are shown in FIG. 3 and Table 1. On the last day of application of the test substance, the mice were sacrificed to obtain skin tissues, and then tissues were fixed with paraffin and then prepared into tissue slices. These were stained with hematoxylin and eosin (H&E) and observed under a microscope (100×), and the results are shown in FIG. 4.

Experiment [2] concerns lipid peroxide production in liver homogenate. The experiment is described as follows: Inhibition of lipid peroxide formation in rat liver homogenate (TBA method). The class given is biochemical, Sprague-Dawley rats. To be noted: positive controls, FeSO4/ascorbic acid, 37° C., 30 minutes, mean ± standard error, read-out: Lipid peroxide production inhibitory activity IC50. The procedure:
Lipid peroxide is a substance produced by peroxidation of lipids through various oxidation reactions. Reactive oxygen species, free radicals and the like oxidize phospholipids of cell membranes containing great amounts of unsaturated fatty acids, producing lipid peroxides in the cell membranes. […] The animals used in the experiment were male Sprague-Dawley rats, and only water was supplied for 24 hours before the experiment.

The mark [3] stands for this setting: A. ageratoides 1%, minoxidil 3%.

For the molecule `Nc1cc(N2CCCCC2)nc(N)[n+]1[O-]` [Minoxidil, minoxidil], in experiment [1] (1% Aster ageratoides extract, 3% minoxidil), the hair thickness was 53.19±4.04 μm. Moreover, in experiment [1] (setting [3]), the Hair length is given as 6-9 mm and the Hair width worked out at 53.2 ± 4.04 µm. The molecule further gave a Hair length in experiment [1] (A. ageratoides 1%, minoxidil 3%, listed as positive control) of 6 to 9 mm.

Usually IC50 stands for the midpoint of a concentration-inhibition curve. In the case of `Cc1c(C)c2c(c(C)c1O)CCC(C)(C(=O)O)O2` (centres unmarked) [Trolox], the IC50 in experiment [2] was over 100 µM.
